Key:
Experiment in all cases: relative viability (nuclei count vs DMSO), 5 days (fraction); higher = more cells survive
Erlotinib + Dasatinib = compound: C#Cc1cccc(Nc2ncnc3cc(OCCOC)c(OCCOC)cc23)c1 [Erlotinib] + Cc1nc(Nc2ncc(C(=O)Nc3c(C)cccc3Cl)s2)cc(N2CCN(CCO)CC2)n1 [Dasatinib] (partner 0.075 µM)
How it was run: (§1)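 Each reported value is a median over duplicate plates. It expresses relative viability: treated-well nuclei count divided by vehicle-well nuclei count. Lung cancer cell lines in 1536-well plates were dosed by pin tool a day after seeding, alone with one drug or with a fixed anchor-drug dose plus five library-drug doses (not always all listed) in √10 steps, and nuclei were counted after 5 days.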

AT9283 + Alpelisib = compound: O=C(Nc1c[nH]nc1-c1nc2ccc(CN3CCOCC3)cc2[nH]1)NC1CC1 [AT9283] + Cc1nc(NC(=O)N2CCC[C@H]2C(N)=O)sc1-c1ccnc(C(C)(C)C(F)(F)F)c1 [Alpelisib] (partner 2 µM)
How it was run: as §1

AT9283 + Navitoclax = compound: O=C(Nc1c[nH]nc1-c1nc2ccc(CN3CCOCC3)cc2[nH]1)NC1CC1 [AT9283] + CC1(C)CCC(c2ccc(Cl)cc2)=C(CN2CCN(c3ccc(C(=O)NS(=O)(=O)c4ccc(N[C@H](CCN5CCOCC5)CSc5ccccc5)c(S(=O)(=O)C(F)(F)F)c4)cc3)CC2)C1 [Navitoclax] (partner 0.5 µM)
How it was run: as §1

AT9283 + Vorinostat = compound: O=C(Nc1c[nH]nc1-c1nc2ccc(CN3CCOCC3)cc2[nH]1)NC1CC1 [AT9283] + O=C(CCCCCCC(=O)Nc1ccccc1)NO [Vorinostat] (partner 1 µM)
How it was run: as §1

Erlotinib + Linsitinib = compound: C#Cc1cccc(Nc2ncnc3cc(OCCOC)c(OCCOC)cc23)c1 [Erlotinib] + C[C@]1(O)C[C@@H](c2nc(-c3ccc4ccc(-c5ccccc5)nc4c3)c3c(N)nccn32)C1 [Linsitinib] (partner 1 µM)
How it was run: as §1

Row | Cell Line | relative viability (Erlotinib + Dasatinib; first compound 0.02 µM) | relative viability (Erlotinib + Dasatinib; first compound 0.2 µM) | relative viability (Erlotinib + Dasatinib; first compound 0.6325 µM) | relative viability (Erlotinib + Dasatinib; first compound 2 µM) | relative viability (AT9283 + Alpelisib; first compound 0.003 µM) | relative viability (AT9283 + Alpelisib; first compound 0.03 µM) | relative viability (AT9283 + Alpelisib; first compound 0.09487 µM) | relative viability (AT9283 + Alpelisib; first compound 0.3 µM) | relative viability (AT9283 + Navitoclax; first compound 0.003 µM) | relative viability (AT9283 + Navitoclax; first compound 0.03 µM) | relative viability (AT9283 + Navitoclax; first compound 0.09487 µM) | relative viability (AT9283 + Navitoclax; first compound 0.3 µM) | relative viability (AT9283 + Vorinostat; first compound 0.003 µM) | relative viability (AT9283 + Vorinostat; first compound 0.03 µM) | relative viability (AT9283 + Vorinostat; first compound 0.09487 µM) | relative viability (AT9283 + Vorinostat; first compound 0.3 µM) | relative viability (Erlotinib + Linsitinib; first compound 0.02 µM) | relative viability (Erlotinib + Linsitinib; first compound 0.2 µM) | relative viability (Erlotinib + Linsitinib; first compound 0.6325 µM) | relative viability (Erlotinib + Linsitinib; first compound 2 µM)
1 | LC-2-ad | 0.724 | 0.466 | 0.589 | 0.452 | 0.933 | 0.319 | 0.106 | 0.107 | 0.506 | 0.232 | 0.0899 | 0.101 | 0.696 | 0.251 | 0.199 | 0.157 | 0.889 | 0.823 | 0.76 | 0.611
2 | HCC-15 | 0.66 | 0.612 | 0.605 | 0.533 | 0.874 | 0.598 | 0.134 | 0.135 | 0.685 | 0.515 | 0.246 | 0.148 | 0.873 | 0.426 | 0.165 | 0.166 | 0.927 | 0.922 | 1 | 
3 | PC-3 [JPC-3] | 0.937 | 0.627 | 0.352 | 0.29 | 1.02 | 0.997 | 0.621 | 0.527 | 0.821 | 0.723 | 0.363 | 0.331 | 0.562 | 0.694 | 0.526 | 0.46 | 0.829 | 0.461 | 0.423 | 0.385
4 | LK-2 | 0.318 | 0.225 | 0.306 | 0.268 | 0.936 | 0.379 | 0.21 | 0.236 | 0.803 | 0.493 | 0.169 | 0.168 | 0.282 | 0.185 | 0.146 | 0.138 | 0.557 | 0.43 | 0.869 | 0.377
5 | LOU-NH91 | 0.459 | 0.434 | 0.415 | 0.365 | 0.695 | 0.684 | 0.531 | 0.427 | 0.735 | 0.605 | 0.37 | 0.283 | 0.905 | 0.552 | 0.449 | 0.432 | 0.592 | 0.544 | 0.487 | 
6 | NCI-H596 | 0.634 | 0.565 | 0.538 | 0.472 | 0.508 | 0.509 | 0.531 | 0.496 | 1.05 | 0.839 | 0.689 | 0.481 | 0.642 | 0.675 | 0.686 | 0.428 | 1.03 | 0.939 | 1.02 | 0.789
7 | NCI-H3122 | 0.799 | 0.453 | 0.903 | 0.877 | 0.786 | 0.764 | 0.28 | 0.227 | 1.01 | 0.902 | 0.359 | 0.298 | 0.851 | 0.978 | 0.598 | 0.138 | 1.04 | 1.06 | 1.02 | 0.961
8 | NCI-H647 | 0.274 | 0.117 | 0.221 | 0.144 | 1.11 | 0.355 | 0.128 | 0.124 | 1.03 | 0.542 | 0.125 | 0.0857 | 0.466 | 0.323 | 0.126 | 0.12 | 1.2 | 1.15 | 1.19 | 0.971
9 | EMC-BAC-2 | 0.33 | 0.314 | 0.337 | 0.342 | 0.775 | 0.499 | 0.173 | 0.157 | 1.23 | 0.785 | 0.199 | 0.25 | 0.28 | 0.19 | 0.159 | 0.146 | 0.795 | 0.705 | 0.703 | 0.584
10 | SK-LU-1 | 0.185 | 0.211 | 0.186 | 0.164 | 1.2 | 0.426 | 0.304 | 0.254 | 1.13 | 0.415 | 0.178 | 0.18 | 0.904 | 0.418 | 0.329 | 0.314 | 1.46 | 1.11 | 1.18 | 0.75
11 | HARA | 0.28 | 0.265 | 0.253 | 0.151 | 0.643 | 0.844 | 0.0814 | 0.0973 | 1.1 | 0.129 | 0.0715 | 0.101 | 0.365 | 0.453 | 0.122 | 0.0962 | 1.13 | 0.834 | 0.59 | 0.197
12 | PC-14 | 0.0626 | 0.0332 | 0.0591 | 0.0181 | 0.992 | 0.893 | 0.554 | 0.1 | 1.12 | 1.01 | 0.37 | 0.078 | 0.79 | 0.17 | 0.107 | 0.114 | 0.426 | 0.289 | 0.269 | 0.219
13 | NCI-H1915 | 0.338 | 0.376 | 0.327 | 0.273 | 1.01 | 1.06 | 0.24 | 0.222 | 0.657 | 0.72 | 0.504 | 0.174 | 0.489 | 0.466 | 0.175 | 0.152 | 1.15 | 1.17 | 1.1 | 1.08
14 | COR-L23 | 0.552 | 0.554 | 0.457 | 0.452 | 0.811 | 0.23 | 0.117 | 0.109 | 0.964 | 0.301 | 0.123 | 0.126 | 0.443 | 0.119 | 0.0932 | 0.0899 | 1.21 | 0.95 | 1.07 | 
15 | NCI-H838 | 0.29 | 0.308 | 0.288 | 0.317 | 1.06 | 0.367 | 0.262 | 0.269 | 1.32 | 0.333 | 0.239 | 0.213 | 0.68 | 0.221 | 0.194 | 0.24 | 1.19 | 0.93 | 1.05 | 0.906

— the supplement of paper PMC10307832
